Laboratory results published in patent US11591334B2, “Substituted pyrrolizines for the treatment of hepatitis B” (SHANGHAI LONGWOOD BIOPHARMACEUTICALS CO., LTD., priority 2017, dated 2023).
Where two headings read alike, the source gives them in different places.

Experiments:
C150 protein = molecular target: T1, C150 protein (Hepatitis B virus genotype D subtype adw, UniProt P03147, C107A/C48A/C61A/R150C); assay: In vitro anti-HBV nucleocapsid assembly activity test (Experiment 1, protein experiment); assay type: biochemical
T1 construct: purchased WuXi Apptec Co., Ltd
T1 sequence (P03147 1-150 C48A/C61A/C107A/R150C): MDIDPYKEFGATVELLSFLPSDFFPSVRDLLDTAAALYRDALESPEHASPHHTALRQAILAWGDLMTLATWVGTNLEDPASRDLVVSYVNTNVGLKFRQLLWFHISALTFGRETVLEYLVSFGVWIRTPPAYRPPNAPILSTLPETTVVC
Description: Experiment 1: In Vitro Anti-HBV Nucleocapsid Assembly Activity Test
Main Reagents and Raw Materials:
C150 protein was expressed and purified by WuXi Apptec Co., Ltd.
BoDIPY® FL was purchased from Thermo Fisher Scientific.
Protein Fluorescent Label:
150 μL of 2% w/v skimmed milk was added into each well of 96-well plate, and incubated at room temperature for 2 hours. The skimmed milk was aspirated. The plate was washed with deionized water and dried, and stored at room temperature. C150 protein (3 mg per tube) was desalted with 5 ml Hitrap desalting column. The desalted C150 protein of each tube was added with 50 mM BoDIPY® FL Fluorescent Dye (20 μl), and incubated under 4° C. overnight in the dark after well mixed. Sephadex G-25 gel was used for filtration to remove fluorescent dyes that were not bounded onto C150. The C150 fluorescent labeling efficiency was calculated according to the following equation: [BoDIPY®FL]=A504/78,000 M^−1; [C150Bo]=(A280−[BoDIPY®FL]×1300 M^−1)/60,900 M^−1; Fluorescent Labeling Efficiency=[BoDIPY®FL]/[C150Bo];
The mother liquor of compound was diluted with DMSO to 6 mM, then diluted to 600 μM with 50 mM HEPES, and then further 3-fold diluted with 10 DMSO/50 mM HEPES to 8 concentrations.
C150Bo was diluted to 2 μM with 50 mM HEPES. 37.5 μL of C150Bo and 2.5 μL of compound at each concentration were added into a 96 well plate and well mixed, then incubated at room temperature for 15 minutes. 10 μl of 750 mM NaCl/50 mM HEPES were added into the each reaction well, and the final concentration of NaCl was 150 mM.
Into the control wells in the 0% protein group 10 μL of 50 mM HEPES was added, and the final concentration of NaCl was 0 mM.
Into the control wells in the 100% protein group 10 μL of 5 M/50 mM HEPES was added, and the final concentration of NaCl was 1 M.
The final concentration of DMSO was 0.5%, the maximum final concentration of the compound was 30 μM, and final concentration of C150Bo was 1.5 μM. The mixture was incubated at room temperature for 1 hour. Fluorescence signal was measured (excitation light was 485 nm; emission light was 535 nm).
Data Analysis % protein assembly=[1−(Sample fluorescence value−1 M NaCl fluorescence value)/(0 M NaCl fluorescence value−1 M NaCl fluorescence value)]×100.
IC50 value was calculated by prism software, and the equation was as follows: Y=Bottom+(Top−Bottom)/(1+10^((LogIC50−X)HillSlope));

[1] = Determination of cytotoxicity (Experiment 3, resazurin assay); assay type: cell-based; conditions: human
Description: Compound dilution. All the compounds for in vitro anti-HBV activity assay and cytotoxicity assay were 3-fold diluted into 8 concentrations. The final concentration of the tested compound was 30 μM, the final starting concentration of reference compound GLS4 was 1 μM, and the final concentration of DMSO was 0.5%. Experiment 3: Determination of Cytotoxicity The cytotoxicity of the test compound was tested using HepG2 cells. The cells were incubated for 4 days in the presence of the test compound. Cell activity was assessed using the resazurin assay.

HBV = assay: Determination of anti-HBV activity in HepG2.2.15 cell (Experiment 2, HBV DNA in supernatant by qPCR); assay type: cell-based; conditions: Hepatitis B virus
Description: Experiment 2: Determination of Anti-HBV Activity in HepG2.2.15 Cell
Compound dilution. All the compounds for in vitro anti-HBV activity assay and cytotoxicity assay were 3-fold diluted into 8 concentrations. The final concentration of the tested compound was 30 μM, the final starting concentration of reference compound GLS4 was 1 μM, and the final concentration of DMSO was 0.5%.
HepG2.2.15 cell (4×10^4 cell/well) was inoculated into 96 well plate, and cultured overnight in 37° C., 5% CO2. On the second day, fresh culture medium containing different concentrations of the compound was added into the culture wells. On the fifth day, the old culture solution in the culture well was aspirated and fresh culture medium containing different concentrations of the compound was added.
On the eighth day, the supernatant in the culture well was collected for extraction of HBV DNA, and the content of DNA in the supernatant of HepG2.2.15 HBV was detected by qPCR. After the supernatant was collected, the medium and Cell-titer Glo reagent were added into the culture well, and the chemiluminescence value of each well was measured by microplate reader.
The activity calculation formula was as follows: Y=Bottom+(Top−Bottom)/(1+10^((LogIC50−X)*Hillslope));

[2] = fluorescently labeled C150 (C150Bo) 1.5 μM, 150 mM NaCl, 1 hour at room temperature, read-out: Experiment 1 Protein experiment IC50
[3] = HepG2 cells, incubated for 4 days, resazurin assay, read-out: Experiment 3 Cytotoxicity CC50
[4] = HepG2.2.15 cells, HBV DNA in supernatant on the eighth day, qPCR, read-out: Experiment 2 Cell experiment EC50
[5] = HepG2.2.15, read-out: Experiment 2 Cell experiment EC50 (nM)

Compound	IC50 (C150 protein; [2]) [nM]	CC50 at 4 days [1, 3] [nM]	EC50 (HBV; [4]) [nM]	IC50 (C150 protein) [nM]	CC50 at 4 days [1] [nM]	EC50 (HBV; [5]) [nM]
C[C@@H](NS(=O)(=O)c1c(Cl)c(C(=O)Nc2ccc(F)c(F)c2)n2c1C=CC2)C(F)(F)F [Compound 10a]	1000 to 100000	> 30000	0.1 to 100			
Cc1c(S(=O)(=O)NC2(C)COC2)c2n(c1C(=O)Nc1ccnc(C(F)F)c1)CC=C2 [Compound 10aa]	1000 to 100000	> 30000	100 to 1000			
C[C@@H](NS(=O)(=O)c1c(Cl)c(C(=O)Nc2cc(F)c(F)c(F)c2)n2c1C=CC2)C(F)(F)F [Compound 10b]		> 30000	0.1 to 100	1000 to 100000		
C[C@@H](NS(=O)(=O)c1c(Cl)c(C(=O)Nc2ccc(F)c(C#N)c2)n2c1C=CC2)C(F)(F)F [Compound 10c]		> 30000	0.1 to 100	1000 to 100000		
CC(NS(=O)(=O)c1c(Cl)c(C(=O)Nc2ccnc(C(F)F)c2)n2c1C=CC2)C(F)(F)F (stereo not drawn) [Compound 10d]	1000 to 100000	> 30000	100 to 1000			
CC(NS(=O)(=O)c1c(Cl)c(C(=O)Nc2ccnc(Cl)c2)n2c1C=CC2)C(F)(F)F (stereo not drawn) [Compound 10e]	1000 to 100000	> 30000	100 to 1000			
CC(NS(=O)(=O)c1c(Cl)c(C(=O)Nc2cc(F)nc(C#N)c2)n2c1C=CC2)C(F)(F)F (stereo not drawn) [Compound 10f]		> 30000	0.1 to 100	1000 to 100000		
Cc1c(S(=O)(=O)NC(C)C(F)(F)F)c2n(c1C(=O)Nc1ccc(F)c(F)c1)CC=C2 (stereo not drawn) [Compound 10g]	1000 to 100000	> 30000	0.1 to 100			
Cc1c(S(=O)(=O)NC2C3CCC2CC(O)(CO)C3)c2n(c1C(=O)Nc1ccc(F)c(F)c1)CC=C2 (stereo not drawn) [Compound 10mm]	1000 to 100000	> 30000	100 to 1000			
O=C(Nc1ccc(F)c(F)c1)c1c(Cl)c(S(=O)(=O)NC2C3CCC2CC(O)(c2cc(-c4ccccc4)on2)C3)c2n1CC=C2 (stereo not drawn) [Compound 10oo]	1000 to 100000	> 30000	100 to 1000			
Cc1c(S(=O)(=O)N2C3CCC2CC(O)(CO)C3)c2n(c1C(=O)Nc1cc(F)nc(C#N)c1)CC=C2 (stereo not drawn) [Compound 10vv]				1000 to 100000	> 30000	0.1 to 100
O=C(Nc1ccc(F)c(F)c1)c1c(Cl)c(S(=O)(=O)N2C3CCC2CC(O)(c2cc(-c4ccccc4)on2)C3)c2n1CC=C2 (stereo not drawn) [Compound 10ww]				1000 to 100000	> 30000	0.1 to 100
CC(NS(=O)(=O)c1c(Cl)c(C(=O)Nc2ccc(F)c(F)c2)n2c1CCC2)C(F)(F)F (stereo not drawn) [Compound 20a]	1000 to 100000	> 30000	0.1 to 100			
CC(NS(=O)(=O)c1c(Cl)c(C(=O)Nc2cc(F)c(F)c(F)c2)n2c1CCC2)C(F)(F)F (stereo not drawn) [Compound 20b]		> 30000	0.1 to 100	< 1000		
CC(CO)NS(=O)(=O)c1c(Cl)c(C(=O)Nc2ccc(F)c(F)c2)n2c1CCC2 (stereo not drawn) [Compound 20cc]	1000 to 100000	> 30000	100 to 1000			
CC(CO)NS(=O)(=O)c1c(Cl)c(C(=O)Nc2ccc(F)c(C#N)c2)n2c1CCC2 (stereo not drawn) [Compound 20dd]	1000 to 100000	> 30000	100 to 1000			
CC(CO)NS(=O)(=O)c1c(Cl)c(C(=O)Nc2ccnc(C(F)F)c2)n2c1CCC2 (stereo not drawn) [Compound 20ee]	1000 to 100000	> 30000	0.1 to 100			
CC(CO)NS(=O)(=O)c1c(Cl)c(C(=O)Nc2cc(F)nc(C#N)c2)n2c1CCC2 (stereo not drawn) [Compound 20ff]	1000 to 100000	> 30000	0.1 to 100			
Cc1c(S(=O)(=O)NC(C)CO)c2n(c1C(=O)Nc1ccnc(C(F)F)c1)CCC2 (stereo not drawn) [Compound 20ii]	1000 to 100000	> 30000	100 to 1000			
Cc1c(S(=O)(=O)NC(C)CO)c2n(c1C(=O)Nc1cc(F)nc(C#N)c1)CCC2 (stereo not drawn) [Compound 20jj]	1000 to 100000	> 30000	100 to 1000			
O=C(Nc1ccc(F)c(F)c1)c1c(Cl)c(S(=O)(=O)NC2C3CCC2CC(O)(CO)C3)c2n1CCC2 (stereo not drawn) [Compound 20kk]	1000 to 100000	> 30000	0.1 to 100			
N#Cc1cc(NC(=O)c2c(Cl)c(S(=O)(=O)NC3C4CCC3CC(O)(CO)C4)c3n2CCC3)cc(F)n1 (stereo not drawn) [Compound 20ll]	1000 to 100000	> 30000	0.1 to 100			
C[C@@H](NS(=O)(=O)c1c(Cl)c(C(=O)Nc2ccc(F)c(F)c2)n2c1C=CCC2)C(F)(F)F [Compound 30a]	< 1000	> 30000	0.1 to 100			
C[C@@H](NS(=O)(=O)c1c(Cl)c(C(=O)Nc2ccc(F)c(C#N)c2)n2c1C=CCC2)C(F)(F)F [Compound 30b]		> 30000	0.1 to 100	1000 to 100000		
C[C@@H](NS(=O)(=O)c1c(Cl)c(C(=O)Nc2ccnc(Cl)c2)n2c1C=CCC2)C(F)(F)F [Compound 30c]		> 30000	0.1 to 100	1000 to 100000		
Cc1c(S(=O)(=O)NC2C3CCC2CC(O)(CO)C3)c2n(c1C(=O)Nc1ccc(F)c(F)c1)CCC=C2 (stereo not drawn) [Compound 30r]	1000 to 100000	> 30000	0.1 to 100			
N#Cc1cc(NC(=O)c2c(Cl)c(S(=O)(=O)NC3C4CCC3CC(O)(c3cc(-c5ccccc5)on3)C4)c3n2CCC=C3)cc(F)n1 (stereo not drawn) [Compound 30s]	1000 to 100000	> 30000	100 to 1000			
Cc1c(S(=O)(=O)NC2C3CCC2CC(O)(c2cc(-c4ccccc4)on2)C3)c2n(c1C(=O)Nc1cc(F)nc(C#N)c1)CCC=C2 (stereo not drawn) [Compound 30t]	1000 to 100000	> 30000	100 to 1000			
